Test results published in patent US11192851B2, “Crystal of L-alanyl-L-glutamine and method for producing same” (KYOWA HAKKO BIO CO., LTD., priority 2016, dated 2021).
Residues, ends and D or L forms follow the SMILES beside them.

How the values were obtained:
Format in all cases: physicochemical
[1] = Loose specific volume of crystals (50 mL measuring cylinder, two-stage funnel); conditions: crystal powder
Description: The loose specific volume refers to a value obtained by dividing volume occupied by a powder by the mass of the powder when a container is filled with the powder and the mass of the powder is measured. A crystal with a low loose specific volume is excellent in filling properties, and easy to handle in various processing steps, and also its transportation cost is low. Therefore, the loose specific volume is preferably low. The loose specific volume can be measured by a method comprising: dropping crystals to a 50 mL glass measuring cylinder via a two-stage glass funnel to make the volume of the crystal to be about 45 mL, and measuring the weight of the crystals. A value obtained by dividing the measured volume of the crystal by the weight is determined to be the loose specific volume.

[2] = Dense specific volume of crystals (after tapping the cylinder 100 times); conditions: crystal powder, after tapping 100 times
Description: The dense specific volume refers to a value obtained by dividing volume of a powder by the mass of the powder, when a container is filled with the powder and the mass of the powder is measured and then a given impact is applied to the container. The dense specific volume can be measured by a method comprising: dropping a crystal to a 50 mL glass measuring cylinder via a two-stage glass funnel to make the volume of the crystal to be about 45 mL; measuring the weight of the crystal; then tapping the measuring cylinder up and down for 100 times; and measuring the volume occupied by the crystal. A value obtained by dividing the measured volume of the crystal by the weight thereof is determined to be the dense specific volume.

[3] = Angle of repose (Multi Tester MT-1001T); conditions: crystal powder, sieve 1.18 mm, vibration width 0.7 to 0.8 mm
Description: The angle of repose refers to an angle formed by a generating line of a cone formed with a powder when the powder is allowed to gently fall onto the horizontal plane through a kind of funnel and a horizontal plane.
[Measurement Conditions for Angle of Repose]
Vibration width: 0.7 to 0.8 mm
The angle-of-repose table is rotated without being given vibration, angles are read at three sites, and an arithmetic mean value of the angles is determined to be the angle of repose.

[4] = Angle of rupture (Multi Tester MT-1001T); conditions: crystal powder, after three impacts
From the text: The angle of rupture refers to an angle formed by a generating line of a cone, formed when a given impact is indirectly applied to a cone formed with a powder by allowing the powder to gently fall onto the horizontal plane through a kind of funnel, and a horizontal plane.
[Specific Example of Measurement Method for Angle of Rupture]
The operation is repeated for three times. Angles are read at three sites by a method similar to the measurement method for the angle of repose, and an arithmetic mean value of the angles is determined to be the angle of rupture.

[5] = Drying loss (water content of crystal by thermal analysis, TG/DTA); conditions: water content in the crystals as loss on drying of the thermal analysis
Description: The crystal of L-alanyl-L-glutamine can be confirmed to be a crystal of nonhydrate when the water content, which is measured by using a thermal analysis according to a method described in the following measurement example, is generally 3.0 wt % or less, preferably 2.5 wt % or less, and more preferably 2.0 wt % or less.
[Measurement Example of Water Content of Crystal according to Thermal Analysis]
Used equipment: EXSTAR 6000 TG/DTA 6200 (manufactured by Seiko Instruments Inc.)
Measurement conditions: Temperature increases from 20° C. to 30° C. at 20° C./min→Hold for 15 minutes at 30° C.→Temperature increases from 30° C. to 250° C. at 5° C./min
Nitrogen flow rate: 300 mL/min
About the known crystal obtained by the method described in Japanese Patent No. 4931801 and the crystals of L-alanyl-L-glutamine nonhydrate of the present invention obtained in Examples 10 to 12, the results, which measured in terms of the loose specific volume, the dense specific volume, the angle of repose, the angle of rupture, and the water content in the crystals as loss on drying of the thermal analysis, are shown in Table 17.

SMILES	Loose specific volume [1] [mL/g]	Dense specific volume [2] [mL/g]	Angle of repose [3] [°]	Angle of rupture [4] [°]	Drying loss [5] [%]
CCO.C[C@H](N)C(=O)N[C@@H](CCC(N)=O)C(=O)O [Example 1, L-alanyl-L-glutamine n-ethanolate] (H-Ala-Gln-OH)	2.55	2.08	39.7	34.6	–
C[C@H](N)C(=O)N[C@@H](CCC(N)=O)C(=O)O [Patent No. 4931801 (nonhydrate), L-alanyl-L-glutamine nonhydrate, reference compound] (H-Ala-Gln-OH)	5.27	2.66	50.9	46.0	0.2
C[C@H](N)C(=O)N[C@@H](CCC(N)=O)C(=O)O [Example 12, L-alanyl-L-glutamine nonhydrate] (H-Ala-Gln-OH)	3.07	2.37	44.7	41.4	0.3
CCO.C[C@H](N)C(=O)N[C@@H](CCC(N)=O)C(=O)O [Example 4 (95° C. vacuum drying), L-alanyl-L-glutamine n-ethanolate] (H-Ala-Gln-OH)	3.61	2.21	42.5	38.6	–
C[C@H](N)C(=O)N[C@@H](CCC(N)=O)C(=O)O [Example 5, L-alanyl-L-glutamine nonhydrate] (H-Ala-Gln-OH)	2.60	2.28	40.2	34.7	–
C[C@H](N)C(=O)N[C@@H](CCC(N)=O)C(=O)O.O.O [Example 7, L-alanyl-L-glutamine dihydrate] (H-Ala-Gln-OH)	3.27	2.73	43.8	38.8	–
CCO.C[C@H](N)C(=O)N[C@@H](CCC(N)=O)C(=O)O [Example 4 (25° C. vacuum drying), L-alanyl-L-glutamine n-ethanolate] (H-Ala-Gln-OH)	3.23	2.32	39.4	35.1	–
C[C@H](N)C(=O)N[C@@H](CCC(N)=O)C(=O)O [Example 10, L-alanyl-L-glutamine nonhydrate] (H-Ala-Gln-OH)	3.69	2.59	46.4	39.5	1.9
CCO.C[C@H](N)C(=O)N[C@@H](CCC(N)=O)C(=O)O [Example 2 (95° C. vacuum drying), L-alanyl-L-glutamine n-ethanolate] (H-Ala-Gln-OH)	2.47	1.88	41.2	35.0	–
C[C@H](N)C(=O)N[C@@H](CCC(N)=O)C(=O)O [Example 11, L-alanyl-L-glutamine nonhydrate] (H-Ala-Gln-OH)	3.65	2.84	42.8	38.0	1.9
